Results published in publication PMC10135569, “Does Enhanced Structural Maturity of hiPSC-Cardiomyocytes Better for the Detection of Drug-Induced Cardiotoxicity?” (Biomolecules, 2023).

What was measured:
[1] = test system: hiPSC-CMs (iCell2 Cardiomyocytes) 2D monolayers; assay: Contractility measurements using video imaging (ContractilityTool / MUSCLEMOTION); format: cell-based, human; conditions: for activity at 0.1 µM / activity at 0.3 µM / activity at 1 µM / activity at 3 µM: Homo sapiens, Cardiomyocyte, 0.5 h, 30 min, delta over DMSO 0.1%; for increasing the amplitude of contraction (positive inotropy): both experimental groups
Method in brief: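 Monolayers on fibronectin or Matrix Plus coating, tested on days 5–6 in serum-free medium. Four concentrations, one per well, n = 8, with vehicle control.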

[2] = listed in Supplementary Table S1; no reference given; cited from earlier work
[3] = test system: hiPSC-CMs (iCell2 Cardiomyocytes) 2D monolayers; assay: Membrane potential (action potential) recordings with FluoVolt voltage-sensitive dye on the CellOPTIQ platform; format: cell-based, human; conditions: for activity at 0.1 µM / activity at 0.3 µM / activity at 1 µM / activity at 3 µM: Homo sapiens, Cardiomyocyte, 0.5 h, 30 min, delta over DMSO 0.1%
Method in brief: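 iCell2 hiPSC-CM monolayers (50,000 cells/well on fibronectin or Matrix Plus, days 5–6) were loaded with FluoVolt (1:1000, 20 min, 37 °C) and imaged at 37 °C with 470 nm excitation and 510–560 nm emission sampled at 10 kHz. Spontaneous action potentials were recorded for 10 s at baseline and 30 min after drug, with one of four concentrations per well (n = 8).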

[4] = FM monolayer, read-out: CtAmp (%DD)
[5] = FM monolayer, read-out: CtD50 (%DD)
[6] = MM monolayer, read-out: CtAmp (%DD)
[7] = MM monolayer, read-out: CtD50 (%DD)
[8] = FM monolayer, read-out: Trise (%DD)
[9] = MM monolayer, read-out: APD30 (%DD)
[10] = MM monolayer, read-out: APD90 (%DD)
[11] = MM monolayer, read-out: CL (%DD)
[12] = MM monolayer, read-out: Trise (%DD)
[13] = read-out: APD30 (%DD), FM monolayer
[14] = read-out: APD90 (%DD), FM monolayer
[15] = read-out: CL (%DD), FM monolayer
[16] = 0.01–1 uM, two 2D monolayer models
[17] = FM monolayer, read-out: APD30 (%DD)
[18] = FM monolayer, read-out: APD90 (%DD)
[19] = FM monolayer, read-out: CL (%DD)

## C[C@H]1O[C@@H](O[C@H]2[C@@H](O)C[C@H](O[C@H]3[C@@H](O)C[C@H](O[C@H]4CC[C@@]5(C)[C@H](CC[C@@H]6[C@@H]5C[C@@H](O)[C@]5(C)[C@@H](C7=CC(=O)OC7)CC[C@]65O)C4)O[C@@H]3C)O[C@@H]2C)C[C@H](O)[C@@H]1O [Digoxin]
[1]; [4]
  activity at 0.1 µM: 88 ± 6.1%
  activity at 0.3 µM: 18 ± 11.1%
[1]; [5]
  activity at 0.1 µM: 90 ± 1.3%
  activity at 0.3 µM: 51 ± 15.9%
[1]; [6]
  activity at 0.1 µM: 127 ± 26.2%
  activity at 0.3 µM: 12 ± 3.3%
  activity at 1 µM: 13 ± 5.3%
  activity at 3 µM: 7 ± 1.9%
[1]; [7]
  activity at 0.1 µM: 97 ± 2%
  activity at 0.3 µM: 43 ± 1.8%
  activity at 1 µM: 40 ± 3.6%
  activity at 3 µM: 43 ± 3.4%
[1]
  increasing the amplitude of contraction (positive inotropy): ineffective
[2]
  Free Cmax: 2 nM
[3]; [8]
  activity at 0.1 µM: 100 ± 21.3%
[3]; [9]
  activity at 0.1 µM: 91 ± 1.2%
  activity at 0.3 µM: 68 ± 2.5%
[3]; [10]
  activity at 0.1 µM: 101 ± 1.3%
  activity at 0.3 µM: 89 ± 1%
[3]; [11]
  activity at 0.1 µM: 102 ± 0.4%
  activity at 0.3 µM: 100 ± 0.8%
[3]; [12]
  activity at 0.1 µM: 127 ± 10.8%
  activity at 0.3 µM: 161 ± 38.2%
[3]; [13]
  activity at 0.1 µM: 84 ± 1.8%
  activity at 0.3 µM: 65 ± 2.8%
[3]; [14]
  activity at 0.1 µM: 95 ± 0.6%
  activity at 0.3 µM: 88 ± 2.1%
[3]; [15]
  activity at 0.1 µM: 98 ± 0.7%
  activity at 0.3 µM: 98 ± 0.9%
[3]; read-out: Trise (%DD), FM monolayer
  activity at 0.3 µM: 74 ± 9.2%
[3]; both groups
  effect on APD (in words): decreased
[3]; higher concentrations, FM and MM
  electrical activity of the monolayers at higher concentrations: electrical quiescence

## C[C@@H]1CC(=O)NN=C1c1ccc(NN=C(C#N)C#N)cc1 [Levosimendan]
[1]; [16]
  effects on contractile activity: no physiologically significant effects
[1]; [4]
  activity at 0.1 µM: 125 ± 20.8%
  activity at 0.3 µM: 94 ± 9.6%
  activity at 1 µM: 155 ± 32.5%
  activity at 3 µM: 122 ± 26.6%
[1]; [5]
  activity at 0.1 µM: 94 ± 3.2%
  activity at 0.3 µM: 100 ± 2.4%
  activity at 1 µM: 102 ± 2.7%
  activity at 3 µM: 101 ± 1.8%
[1]; [6]
  activity at 0.1 µM: 120 ± 12.4%
  activity at 0.3 µM: 95 ± 8.1%
  activity at 1 µM: 199 ± 27.2%
  activity at 3 µM: 167 ± 33.5%
[1]; [7]
  activity at 0.1 µM: 104 ± 2%
  activity at 0.3 µM: 102 ± 1.3%
  activity at 1 µM: 104 ± 2%
  activity at 3 µM: 103 ± 2.3%
[1]
  increasing the amplitude of contraction (positive inotropy): ineffective
[1]; higher concentrations, FM and MM, not statistically significant
  contractile amplitude at higher concentrations (in words): increased
[1]; higher concentrations, both groups, failed to reach significance
  change in amplitude of contraction at higher concentrations: < 20%
[2]
  Free Cmax: 100 nM
[3]; [16]
  effects on electrical activity: no physiologically significant effects
[3]; [17]
  activity at 0.1 µM: 102 ± 2.2%
  activity at 0.3 µM: 101 ± 2.9%
  activity at 1 µM: 94 ± 3%
  activity at 3 µM: 99 ± 3.9%
[3]; [18]
  activity at 0.1 µM: 96 ± 1.7%
  activity at 0.3 µM: 94 ± 1.1%
  activity at 1 µM: 93 ± 0.6%
  activity at 3 µM: 94 ± 1%
[3]; [19]
  activity at 0.1 µM: 95 ± 1.4%
  activity at 0.3 µM: 93 ± 1.1%
  activity at 1 µM: 93 ± 1.6%
  activity at 3 µM: 97 ± 1.2%
[3]; [8]
  activity at 0.1 µM: 97 ± 22.3%
  activity at 0.3 µM: 80 ± 13.5%
  activity at 1 µM: 65 ± 9.5%
  activity at 3 µM: 101 ± 24.9%
[3]; [9]
  activity at 0.1 µM: 97 ± 1.4%
  activity at 0.3 µM: 100 ± 2.2%
  activity at 1 µM: 95 ± 1.7%
  activity at 3 µM: 93 ± 1.9%
[3]; [10]
  activity at 0.1 µM: 96 ± 1.2%
  activity at 0.3 µM: 100 ± 1%
  activity at 1 µM: 98 ± 0.9%
  activity at 3 µM: 98 ± 0.9%
[3]; [11]
  activity at 0.1 µM: 99 ± 0.8%
  activity at 0.3 µM: 97 ± 0.7%
  activity at 1 µM: 97 ± 0.7%
  activity at 3 µM: 98 ± 0.5%
[3]; [12]
  activity at 0.1 µM: 107 ± 17.8%
  activity at 0.3 µM: 121 ± 16.3%
  activity at 1 µM: 96 ± 7.8%
  activity at 3 µM: 114 ± 10.2%
